Test results from ChEMBL document CHEMBL5291721, “A preclinical secondary pharmacology resource illuminates target-adverse drug reaction associations of marketed drugs” (Nat Commun, 2023).

What was measured:
[1] = biological target: cGMP-inhibited 3',5'-cyclic phosphodiesterase 3A (Homo sapiens, UniProt Q14432); assay type: functional
[2] = biological target: T1, 5-hydroxytryptamine receptor 2B (Homo sapiens, UniProt P41595); assay type: functional, cell-based
Vasopressin V2 receptor = Vasopressin V2 receptor (Homo sapiens, UniProt P30518)
Chain of Vasopressin V2 receptor (P30518 whole entry): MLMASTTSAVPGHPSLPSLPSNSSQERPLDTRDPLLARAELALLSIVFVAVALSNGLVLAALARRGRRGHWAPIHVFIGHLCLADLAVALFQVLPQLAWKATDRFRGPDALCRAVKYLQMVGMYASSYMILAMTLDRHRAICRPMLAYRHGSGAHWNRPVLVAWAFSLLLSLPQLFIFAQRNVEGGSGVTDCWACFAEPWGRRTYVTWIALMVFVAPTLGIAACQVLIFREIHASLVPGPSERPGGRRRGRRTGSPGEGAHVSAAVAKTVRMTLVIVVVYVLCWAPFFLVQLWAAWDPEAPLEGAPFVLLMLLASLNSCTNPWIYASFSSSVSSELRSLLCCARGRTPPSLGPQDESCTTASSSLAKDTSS

[3] = biological target: Beta-2 adrenergic receptor (Homo sapiens, UniProt P07550); assay type: functional, cell-based
Chain of Beta-2 adrenergic receptor (P07550 whole entry): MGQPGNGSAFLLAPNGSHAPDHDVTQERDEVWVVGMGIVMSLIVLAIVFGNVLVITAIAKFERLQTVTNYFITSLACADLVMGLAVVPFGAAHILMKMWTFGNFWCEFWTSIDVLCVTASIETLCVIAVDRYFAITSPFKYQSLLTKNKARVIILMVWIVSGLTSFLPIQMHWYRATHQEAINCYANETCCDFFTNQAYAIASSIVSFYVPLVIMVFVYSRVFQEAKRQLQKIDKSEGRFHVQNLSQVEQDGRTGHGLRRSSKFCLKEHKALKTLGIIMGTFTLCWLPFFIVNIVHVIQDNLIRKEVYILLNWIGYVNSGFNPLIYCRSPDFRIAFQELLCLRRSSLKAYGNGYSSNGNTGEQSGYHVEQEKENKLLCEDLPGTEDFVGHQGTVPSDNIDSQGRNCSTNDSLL

[4] = biological target: T1, 5-hydroxytryptamine receptor 2B; assay type: functional, cell-based; remark: listed apart in the source
Adenosine receptor A1 [5] = biological target: T2, Adenosine receptor A1 (Homo sapiens, UniProt P30542)
T2 sequence (P30542 whole entry): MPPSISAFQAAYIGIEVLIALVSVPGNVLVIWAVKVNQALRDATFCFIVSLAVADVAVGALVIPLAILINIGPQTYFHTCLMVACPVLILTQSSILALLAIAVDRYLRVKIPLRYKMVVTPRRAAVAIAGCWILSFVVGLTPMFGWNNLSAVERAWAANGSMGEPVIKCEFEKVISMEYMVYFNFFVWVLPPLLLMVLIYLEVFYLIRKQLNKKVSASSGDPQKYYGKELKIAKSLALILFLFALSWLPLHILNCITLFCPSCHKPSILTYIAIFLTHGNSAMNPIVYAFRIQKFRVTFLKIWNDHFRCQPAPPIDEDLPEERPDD

[6] = biological target: T3, Alpha-2A adrenergic receptor (Homo sapiens, UniProt P08913); assay type: functional, cell-based
T3 sequence (P08913 whole entry): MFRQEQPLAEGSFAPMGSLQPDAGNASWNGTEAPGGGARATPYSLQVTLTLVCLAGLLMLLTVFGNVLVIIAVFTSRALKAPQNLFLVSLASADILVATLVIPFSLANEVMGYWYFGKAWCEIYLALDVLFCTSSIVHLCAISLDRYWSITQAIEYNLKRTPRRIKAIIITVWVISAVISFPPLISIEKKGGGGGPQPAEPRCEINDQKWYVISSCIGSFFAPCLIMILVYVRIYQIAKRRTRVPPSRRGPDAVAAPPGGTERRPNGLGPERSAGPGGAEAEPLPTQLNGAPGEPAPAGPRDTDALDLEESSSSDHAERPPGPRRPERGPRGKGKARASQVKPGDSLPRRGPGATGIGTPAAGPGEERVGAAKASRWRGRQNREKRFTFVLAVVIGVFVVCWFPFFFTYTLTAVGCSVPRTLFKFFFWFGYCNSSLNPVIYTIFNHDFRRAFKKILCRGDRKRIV

[7] = biological target: 3',5'-cyclic-AMP phosphodiesterase 4D (Homo sapiens, UniProt Q08499); assay type: functional
[8] = biological target: T4, Equilibrative nucleoside transporter 1 (Homo sapiens, UniProt Q99808)
T4 sequence (Q99808 whole entry): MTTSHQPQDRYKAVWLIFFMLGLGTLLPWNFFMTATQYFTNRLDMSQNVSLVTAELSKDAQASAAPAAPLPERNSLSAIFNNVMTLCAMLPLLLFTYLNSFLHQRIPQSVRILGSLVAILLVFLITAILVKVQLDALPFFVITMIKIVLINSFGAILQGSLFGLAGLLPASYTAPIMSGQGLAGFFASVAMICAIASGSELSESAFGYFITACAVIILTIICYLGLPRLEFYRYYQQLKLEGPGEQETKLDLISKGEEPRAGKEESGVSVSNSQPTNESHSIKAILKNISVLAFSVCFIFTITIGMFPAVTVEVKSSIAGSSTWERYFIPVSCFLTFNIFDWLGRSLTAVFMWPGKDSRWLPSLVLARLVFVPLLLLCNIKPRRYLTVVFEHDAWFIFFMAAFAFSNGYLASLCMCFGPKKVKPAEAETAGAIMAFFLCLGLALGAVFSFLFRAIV

[9] = biological target: Sodium-dependent noradrenaline transporter (Homo sapiens, UniProt P23975)
Chain of Sodium-dependent noradrenaline transporter (P23975 whole entry): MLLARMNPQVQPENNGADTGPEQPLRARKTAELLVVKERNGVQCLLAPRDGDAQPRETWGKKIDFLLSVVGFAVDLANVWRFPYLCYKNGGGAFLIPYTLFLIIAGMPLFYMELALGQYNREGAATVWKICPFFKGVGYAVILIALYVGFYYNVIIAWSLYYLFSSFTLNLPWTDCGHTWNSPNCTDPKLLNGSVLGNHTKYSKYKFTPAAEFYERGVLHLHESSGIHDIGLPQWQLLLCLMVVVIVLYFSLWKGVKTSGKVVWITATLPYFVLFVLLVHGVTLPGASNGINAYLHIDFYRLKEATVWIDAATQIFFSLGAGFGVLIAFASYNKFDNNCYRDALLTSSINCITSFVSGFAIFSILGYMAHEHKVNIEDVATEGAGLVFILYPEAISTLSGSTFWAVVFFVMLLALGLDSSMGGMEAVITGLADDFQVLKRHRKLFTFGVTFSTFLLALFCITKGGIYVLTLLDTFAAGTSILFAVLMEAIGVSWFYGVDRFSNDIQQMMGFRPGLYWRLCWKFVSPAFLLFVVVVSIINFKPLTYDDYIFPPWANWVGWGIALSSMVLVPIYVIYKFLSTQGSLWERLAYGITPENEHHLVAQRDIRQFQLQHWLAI

[10] = biological target: Growth hormone secretagogue receptor type 1 (Homo sapiens, UniProt Q92847)
Chain of Growth hormone secretagogue receptor type 1 (Q92847 whole entry): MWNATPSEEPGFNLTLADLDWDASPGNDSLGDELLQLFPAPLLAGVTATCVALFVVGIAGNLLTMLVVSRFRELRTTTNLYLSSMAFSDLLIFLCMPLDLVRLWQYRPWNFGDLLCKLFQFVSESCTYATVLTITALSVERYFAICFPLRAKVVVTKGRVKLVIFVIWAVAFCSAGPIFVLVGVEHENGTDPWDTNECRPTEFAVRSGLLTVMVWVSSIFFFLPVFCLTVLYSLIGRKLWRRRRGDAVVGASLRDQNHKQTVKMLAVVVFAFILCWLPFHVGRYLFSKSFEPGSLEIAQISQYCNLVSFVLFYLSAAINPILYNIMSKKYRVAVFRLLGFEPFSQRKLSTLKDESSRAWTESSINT

Motilin receptor = Motilin receptor (Homo sapiens, UniProt O43193)
Chain of Motilin receptor (O43193 whole entry): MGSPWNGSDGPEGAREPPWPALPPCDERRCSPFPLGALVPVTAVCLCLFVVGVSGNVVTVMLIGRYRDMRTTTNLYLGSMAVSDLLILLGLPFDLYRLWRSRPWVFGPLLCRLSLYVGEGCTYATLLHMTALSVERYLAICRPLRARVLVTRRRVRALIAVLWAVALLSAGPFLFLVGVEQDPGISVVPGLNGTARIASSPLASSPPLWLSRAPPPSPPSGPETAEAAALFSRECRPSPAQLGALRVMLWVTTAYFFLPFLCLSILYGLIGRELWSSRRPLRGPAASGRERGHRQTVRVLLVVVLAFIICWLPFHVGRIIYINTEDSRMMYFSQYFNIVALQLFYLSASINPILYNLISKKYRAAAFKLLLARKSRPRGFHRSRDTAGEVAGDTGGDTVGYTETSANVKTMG

Cannabinoid receptor 1 = Cannabinoid receptor 1 (Homo sapiens, UniProt P21554); assay type: functional, cell-based
Chain of Cannabinoid receptor 1 (P21554 whole entry): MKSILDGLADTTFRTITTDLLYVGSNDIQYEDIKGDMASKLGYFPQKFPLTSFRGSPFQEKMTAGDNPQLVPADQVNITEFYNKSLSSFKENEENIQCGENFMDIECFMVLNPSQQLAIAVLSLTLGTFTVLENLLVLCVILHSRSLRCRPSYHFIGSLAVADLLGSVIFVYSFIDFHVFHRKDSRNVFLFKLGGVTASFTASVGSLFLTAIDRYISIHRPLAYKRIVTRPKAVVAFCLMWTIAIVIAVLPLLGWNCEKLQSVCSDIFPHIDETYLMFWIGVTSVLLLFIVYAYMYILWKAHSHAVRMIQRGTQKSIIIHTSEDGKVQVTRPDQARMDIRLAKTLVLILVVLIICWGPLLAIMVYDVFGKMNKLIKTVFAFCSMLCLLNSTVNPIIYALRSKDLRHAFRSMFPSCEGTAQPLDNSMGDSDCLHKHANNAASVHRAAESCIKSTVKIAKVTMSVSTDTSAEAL

Adenosine receptor A1 [11] = biological target: T2, Adenosine receptor A1; remark: listed apart in the source
Glucocorticoid receptor = biological target: T5, Glucocorticoid receptor (Homo sapiens, UniProt P04150)
T5 sequence (P04150 whole entry): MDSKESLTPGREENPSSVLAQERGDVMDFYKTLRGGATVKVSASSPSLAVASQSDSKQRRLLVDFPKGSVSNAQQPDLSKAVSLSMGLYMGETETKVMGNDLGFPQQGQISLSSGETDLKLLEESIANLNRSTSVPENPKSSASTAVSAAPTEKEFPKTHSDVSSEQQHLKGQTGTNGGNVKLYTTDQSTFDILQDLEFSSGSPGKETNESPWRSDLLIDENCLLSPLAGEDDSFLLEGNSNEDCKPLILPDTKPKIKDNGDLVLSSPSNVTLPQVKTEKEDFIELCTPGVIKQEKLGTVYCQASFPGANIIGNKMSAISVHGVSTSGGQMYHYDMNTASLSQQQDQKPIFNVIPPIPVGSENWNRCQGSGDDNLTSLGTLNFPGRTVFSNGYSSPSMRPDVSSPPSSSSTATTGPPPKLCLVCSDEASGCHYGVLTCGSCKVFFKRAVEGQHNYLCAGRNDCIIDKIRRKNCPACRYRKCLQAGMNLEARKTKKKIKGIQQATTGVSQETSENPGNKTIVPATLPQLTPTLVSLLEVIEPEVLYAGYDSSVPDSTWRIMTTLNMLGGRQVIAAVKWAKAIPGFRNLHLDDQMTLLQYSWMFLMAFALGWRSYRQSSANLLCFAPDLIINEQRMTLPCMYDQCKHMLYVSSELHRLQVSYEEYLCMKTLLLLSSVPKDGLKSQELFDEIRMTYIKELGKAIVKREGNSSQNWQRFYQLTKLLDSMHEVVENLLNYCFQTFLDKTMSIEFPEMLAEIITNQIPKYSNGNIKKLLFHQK
Note: assay procedure not described here.

Chain of cGMP-inhibited 3',5'-cyclic phosphodiesterase 3A (Q14432 whole entry): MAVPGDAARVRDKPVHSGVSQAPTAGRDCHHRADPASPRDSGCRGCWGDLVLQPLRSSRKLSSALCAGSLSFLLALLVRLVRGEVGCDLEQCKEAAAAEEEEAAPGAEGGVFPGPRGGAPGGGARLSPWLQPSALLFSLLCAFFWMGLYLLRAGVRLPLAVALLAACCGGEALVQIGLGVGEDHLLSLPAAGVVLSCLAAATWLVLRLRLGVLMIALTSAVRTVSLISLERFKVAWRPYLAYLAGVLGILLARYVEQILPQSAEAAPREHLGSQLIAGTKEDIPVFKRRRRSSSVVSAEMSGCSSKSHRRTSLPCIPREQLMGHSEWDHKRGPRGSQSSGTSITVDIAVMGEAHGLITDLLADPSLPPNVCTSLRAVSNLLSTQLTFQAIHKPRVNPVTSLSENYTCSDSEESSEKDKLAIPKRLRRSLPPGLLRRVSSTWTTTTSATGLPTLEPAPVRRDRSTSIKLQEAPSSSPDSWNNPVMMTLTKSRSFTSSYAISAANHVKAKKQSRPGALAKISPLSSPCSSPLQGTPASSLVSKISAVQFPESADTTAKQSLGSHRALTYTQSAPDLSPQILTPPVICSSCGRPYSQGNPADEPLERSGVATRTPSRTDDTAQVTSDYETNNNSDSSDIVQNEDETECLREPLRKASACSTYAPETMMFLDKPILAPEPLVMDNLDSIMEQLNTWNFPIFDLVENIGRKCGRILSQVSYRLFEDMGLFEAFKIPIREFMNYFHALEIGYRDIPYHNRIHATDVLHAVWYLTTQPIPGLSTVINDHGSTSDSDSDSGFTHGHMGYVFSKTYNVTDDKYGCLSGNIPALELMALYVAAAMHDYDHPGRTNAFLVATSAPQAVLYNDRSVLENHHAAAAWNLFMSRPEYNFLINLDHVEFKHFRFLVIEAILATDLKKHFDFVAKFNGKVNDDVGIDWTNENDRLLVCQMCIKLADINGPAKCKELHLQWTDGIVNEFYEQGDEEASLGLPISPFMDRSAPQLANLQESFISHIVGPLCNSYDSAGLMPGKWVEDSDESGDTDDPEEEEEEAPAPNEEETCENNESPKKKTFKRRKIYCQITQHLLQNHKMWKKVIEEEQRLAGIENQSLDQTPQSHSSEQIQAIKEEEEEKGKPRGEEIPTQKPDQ
T1 sequence (P41595 whole entry): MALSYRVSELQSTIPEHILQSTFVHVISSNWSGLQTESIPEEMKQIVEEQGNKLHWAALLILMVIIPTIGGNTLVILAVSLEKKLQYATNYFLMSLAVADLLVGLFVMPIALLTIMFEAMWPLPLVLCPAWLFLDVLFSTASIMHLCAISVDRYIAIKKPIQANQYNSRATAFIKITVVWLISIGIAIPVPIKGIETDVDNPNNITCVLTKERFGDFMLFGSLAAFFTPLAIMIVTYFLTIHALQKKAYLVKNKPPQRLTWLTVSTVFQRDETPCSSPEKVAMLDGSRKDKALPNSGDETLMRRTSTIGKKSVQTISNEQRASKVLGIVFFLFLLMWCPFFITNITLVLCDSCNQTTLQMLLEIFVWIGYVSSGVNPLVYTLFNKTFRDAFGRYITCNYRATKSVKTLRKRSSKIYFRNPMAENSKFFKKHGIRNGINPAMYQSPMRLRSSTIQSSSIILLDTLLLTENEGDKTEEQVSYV

Compound | AC50 [1] [µM] | AC50 [2] [µM] | AC50 (Vasopressin V2 receptor) [µM] | AC50 [3] [µM] | AC50 [4] [µM] | AC50 (Adenosine receptor A1 [5]) [µM] | AC50 [6] [µM] | AC50 [7] [µM] | AC50 [8] [µM] | AC50 [9] [µM] | AC50 [10] [µM] | AC50 (Motilin receptor) [µM] | AC50 (Cannabinoid receptor 1) [µM] | AC50 (Adenosine receptor A1 [11]) [µM] | AC50 (Glucocorticoid receptor) [µM]
CC[C@@H](C(N)=O)N1CCCC1=O | > 30 | > 30 | > 30 | > 30 | > 30 | > 30 | > 30 | > 30 | > 30 | > 30 | > 30 | > 30 | > 30 |  | 
CCC(CC)(CC(=O)Nc1cccc(/C=C/c2nc(C3CCC3)cs2)c1)C(=O)O |  |  | > 30 |  |  | > 30 |  |  | > 30 | > 30 | > 30 | > 30 |  | > 30 | 
Nc1ccncc1N [AMIFAMPRIDINE] |  |  |  |  |  |  |  |  |  |  |  |  |  | > 30 | 
CCCC1O[C@@H]2C[C@H]3[C@@H]4CCC5=CC(=O)C=C[C@]5(C)[C@H]4[C@@H](O)C[C@]3(C)[C@]2(C(=O)CO)O1 (some centres undefined) [BUDESONIDE] | > 30 | > 10 | > 10 |  | > 10 | > 10 | > 10 | > 30 | > 10 | > 10 | > 10 | > 10 |  |  | 
C=CCN1C[C@H](C(=O)N(CCCN(C)C)C(=O)NCC)C[C@@H]2c3cccc4[nH]cc(c34)C[C@H]21 [CABERGOLINE] | > 30 |  | > 10 | > 30 | 0.189 | > 10 |  | > 30 | > 30 | 8.7 | > 10 | > 10 | > 30 |  | > 10
CC(=O)OCC1=C(C(=O)O)N2C(=O)[C@@H](NC(=O)[C@H](N)c3ccccc3)[C@H]2SC1 [CEPHALOGLYCIN] |  |  |  |  |  |  |  |  |  |  |  |  |  | > 30 | 
CN(C)CCC=C1c2ccccc2C=Cc2ccccc21 [CYCLOBENZAPRINE] | > 30 | 1.25 | > 30 | > 30 | > 10 | > 30 | > 10 | > 30 | > 30 | 0.378 | > 30 | > 10 | > 30 |  | > 30
CCOc1ccc(Cc2cc([C@@H]3O[C@H](CO)[C@@H](O)[C@H](O)[C@H]3O)ccc2Cl)cc1 [DAPAGLIFLOZIN] | > 30 |  | > 30 |  |  | > 30 |  | > 30 | > 30 | > 30 | > 30 | > 10 |  |  | > 30
CN(C)CC/C=C1\c2ccccc2CSc2ccccc21 [DOTHIEPIN] | > 30 | 3.6 | > 30 | > 30 | > 30 | > 30 | 29 | > 30 |  | 0.8 | > 30 | > 30 | > 30 |  | > 30
COc1ccc(C(=O)Nc2ccccc2CCC2CCCCN2C)cc1 (centres undefined) [ENCAINIDE] | > 30 | > 10 | > 30 | > 30 | > 10 | > 30 | > 10 | > 30 | > 30 | > 10 | > 30 | > 10 | > 30 |  | > 30
Clc1cc(Cl)c(OCC#CI)cc1Cl [HALOPROGIN] |  |  |  |  |  |  |  |  |  |  |  |  |  | 15.4 | 
O=[N+]([O-])O[C@@H]1CO[C@H]2[C@@H]1OC[C@@H]2O [ISOSORBIDE MONONITRATE] | > 30 | > 10 | > 30 |  | > 10 | > 30 | > 10 | > 30 | > 30 | > 10 | > 30 | > 10 |  | > 30 | > 30
CC(C)(C)C(=O)OCOC(=O)[C@@H]1N2C(=O)[C@@H](NC(=O)[C@H](N)c3ccccc3)[C@H]2SC1(C)C [PIVAMPICILLIN] |  |  |  |  |  |  |  |  |  |  |  |  |  | > 30 | 
COc1cc2nc(N3CCN(C(=O)c4ccco4)CC3)nc(N)c2cc1OC [PRAZOSIN] | > 30 | 26 | > 30 |  | > 10 | > 30 |  | > 30 | > 30 | > 10 | > 30 | > 10 | > 30 | > 30 | > 30
O=[N+]([O-])c1cn2c(n1)OC[C@@H](OCc1ccc(OC(F)(F)F)cc1)C2 [PRETOMANID] | > 10 |  | > 30 |  |  | > 30 |  | > 10 | > 30 | > 10 | > 30 | > 10 |  |  | 
O=C(Oc1ccc2c(c1)CCCN2C(=O)C(Cl)Cl)c1ccco1 [QUINFAMIDE] |  |  |  |  |  |  |  |  |  |  |  |  |  | 29.4 | 
CCCCCNC(=N)N/N=C/c1c[nH]c2ccc(OC)cc12 [TEGASEROD] | > 30 | 0.343 | 20.3 |  | > 30 | > 30 | 5.65 | 19 | > 30 | 0.495 | 11.4 | 16.3 |  | > 30 | > 30
CCCCS(=O)(=O)N[C@@H](Cc1ccc(OCCCCC2CCNCC2)cc1)C(=O)O [TIROFIBAN] |  |  |  |  |  |  |  |  |  |  |  |  |  | > 30 | 
C=CCCCCCCCCC(=O)O [UNDECYLENIC ACID] |  |  |  |  |  |  |  |  |  |  |  |  |  | > 30 | 
CCOc1ccccc1OCC1CNCCO1 (centres undefined) [VILOXAZINE] | > 30 | > 10 | > 30 | > 30 | > 10 | > 30 | > 10 | > 30 | > 30 | 0.97 | > 30 | > 10 | > 30 |  | > 30
CN(C)CCc1c[nH]c2ccc(C[C@H]3COC(=O)N3)cc12 [ZOLMITRIPTAN] | > 30 | > 30 | > 30 | > 30 | > 30 | > 30 | > 30 | > 30 | > 30 | > 30 | > 30 | > 30 |  |  | > 30
